Experimental data from ChEMBL document CHEMBL1158562, “Design, synthesis and structure-activity relationships of novel biarylamine-based Met kinase inhibitors” (Bioorg Med Chem Lett, 2010).
The source made the active and inactive calls. No cut-off for these calls is given here.

What was measured:
[1] = Antiproliferative activity against human GTL16 cells after 72 hrs by tetrazolium-based colorimetric assay; conditions: GTL 16, 72 h
[2] = Inhibition of CDK2E
[3] = molecular target: Tyrosine-protein kinase Lck (Homo sapiens, UniProt P06239); assay: Inhibition of LcK
[4] = molecular target: MAP kinase-activated protein kinase 2 (Homo sapiens, UniProt P49137); assay: Inhibition of MK2
[5] = molecular target: High affinity nerve growth factor receptor (Homo sapiens, UniProt P04629); assay: Inhibition of TrkA
[6] = molecular target: T1, Receptor-type tyrosine-protein kinase FLT3 (Homo sapiens, UniProt P36888); assay: Inhibition of FLT3
T1 sequence (P36888 whole entry): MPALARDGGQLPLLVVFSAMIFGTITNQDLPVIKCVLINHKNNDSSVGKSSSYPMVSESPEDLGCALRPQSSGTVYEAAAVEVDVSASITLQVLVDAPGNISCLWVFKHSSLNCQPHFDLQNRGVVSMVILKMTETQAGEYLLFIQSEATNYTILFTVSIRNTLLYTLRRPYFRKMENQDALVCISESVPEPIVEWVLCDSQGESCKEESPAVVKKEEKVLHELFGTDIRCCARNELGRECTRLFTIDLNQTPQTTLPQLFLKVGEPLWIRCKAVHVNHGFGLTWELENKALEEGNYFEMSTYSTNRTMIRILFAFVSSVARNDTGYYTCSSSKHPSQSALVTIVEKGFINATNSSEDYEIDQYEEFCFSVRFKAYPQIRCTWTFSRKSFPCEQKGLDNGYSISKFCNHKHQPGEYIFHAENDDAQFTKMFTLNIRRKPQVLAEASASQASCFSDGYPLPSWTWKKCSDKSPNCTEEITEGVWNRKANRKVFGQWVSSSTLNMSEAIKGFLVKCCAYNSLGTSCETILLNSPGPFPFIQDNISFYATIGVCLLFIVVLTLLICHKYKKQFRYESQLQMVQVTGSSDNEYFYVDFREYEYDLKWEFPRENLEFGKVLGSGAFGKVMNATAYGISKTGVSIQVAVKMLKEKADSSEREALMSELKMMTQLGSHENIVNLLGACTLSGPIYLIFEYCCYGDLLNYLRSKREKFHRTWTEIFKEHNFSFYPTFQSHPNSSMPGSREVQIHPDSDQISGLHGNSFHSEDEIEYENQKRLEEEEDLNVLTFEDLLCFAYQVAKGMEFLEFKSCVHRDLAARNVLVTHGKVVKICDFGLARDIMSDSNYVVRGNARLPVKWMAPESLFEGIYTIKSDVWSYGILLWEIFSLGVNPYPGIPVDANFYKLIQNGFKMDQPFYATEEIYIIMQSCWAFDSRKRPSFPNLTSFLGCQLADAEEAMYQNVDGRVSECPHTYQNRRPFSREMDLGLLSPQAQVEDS

[7] = molecular target: Hepatocyte growth factor receptor (Homo sapiens, UniProt P08581); assay: Inhibition of GST-tagged human recombinant c-met N terminal domain expressed in Hi5 insect cells after 60 mins by liquid scintillation counting
[8] = molecular target: Protein kinase C alpha type (Homo sapiens, UniProt P17252); assay: Inhibition of PKCalpha
[9] = Cmax in mouse at 50 mg/kg, po for 8 hrs; type: ADME, organism-based; set-up: dose 50 mg/kg, route oral; conditions: in vivo
GTL 16 [10] = assay: Antitumor activity against human GTL16 cells xenografted in anthymic mouse administered po qd for 15 days; type: functional, organism-based
Insulin receptor = Insulin receptor (Homo sapiens, UniProt P06213); assay: Inhibition of InsR
[11] = AUC (0 to 8 hrs) in mouse at 50 mg/kg, po; type: ADME, organism-based; set-up: time < 8 hr, dose 50 mg/kg, route oral; conditions: plasma
GTL 16 [12] = assay: Antitumor activity against human GTL16 cells xenografted in anthymic mouse assessed as complete tumor stasis at 25 mg/kg, po qd for 15 days; type: functional, organism-based; set-up: dose 25 mg/kg

Hepatocyte growth factor receptor, sequence (P08581 whole entry, the tested form may be a part): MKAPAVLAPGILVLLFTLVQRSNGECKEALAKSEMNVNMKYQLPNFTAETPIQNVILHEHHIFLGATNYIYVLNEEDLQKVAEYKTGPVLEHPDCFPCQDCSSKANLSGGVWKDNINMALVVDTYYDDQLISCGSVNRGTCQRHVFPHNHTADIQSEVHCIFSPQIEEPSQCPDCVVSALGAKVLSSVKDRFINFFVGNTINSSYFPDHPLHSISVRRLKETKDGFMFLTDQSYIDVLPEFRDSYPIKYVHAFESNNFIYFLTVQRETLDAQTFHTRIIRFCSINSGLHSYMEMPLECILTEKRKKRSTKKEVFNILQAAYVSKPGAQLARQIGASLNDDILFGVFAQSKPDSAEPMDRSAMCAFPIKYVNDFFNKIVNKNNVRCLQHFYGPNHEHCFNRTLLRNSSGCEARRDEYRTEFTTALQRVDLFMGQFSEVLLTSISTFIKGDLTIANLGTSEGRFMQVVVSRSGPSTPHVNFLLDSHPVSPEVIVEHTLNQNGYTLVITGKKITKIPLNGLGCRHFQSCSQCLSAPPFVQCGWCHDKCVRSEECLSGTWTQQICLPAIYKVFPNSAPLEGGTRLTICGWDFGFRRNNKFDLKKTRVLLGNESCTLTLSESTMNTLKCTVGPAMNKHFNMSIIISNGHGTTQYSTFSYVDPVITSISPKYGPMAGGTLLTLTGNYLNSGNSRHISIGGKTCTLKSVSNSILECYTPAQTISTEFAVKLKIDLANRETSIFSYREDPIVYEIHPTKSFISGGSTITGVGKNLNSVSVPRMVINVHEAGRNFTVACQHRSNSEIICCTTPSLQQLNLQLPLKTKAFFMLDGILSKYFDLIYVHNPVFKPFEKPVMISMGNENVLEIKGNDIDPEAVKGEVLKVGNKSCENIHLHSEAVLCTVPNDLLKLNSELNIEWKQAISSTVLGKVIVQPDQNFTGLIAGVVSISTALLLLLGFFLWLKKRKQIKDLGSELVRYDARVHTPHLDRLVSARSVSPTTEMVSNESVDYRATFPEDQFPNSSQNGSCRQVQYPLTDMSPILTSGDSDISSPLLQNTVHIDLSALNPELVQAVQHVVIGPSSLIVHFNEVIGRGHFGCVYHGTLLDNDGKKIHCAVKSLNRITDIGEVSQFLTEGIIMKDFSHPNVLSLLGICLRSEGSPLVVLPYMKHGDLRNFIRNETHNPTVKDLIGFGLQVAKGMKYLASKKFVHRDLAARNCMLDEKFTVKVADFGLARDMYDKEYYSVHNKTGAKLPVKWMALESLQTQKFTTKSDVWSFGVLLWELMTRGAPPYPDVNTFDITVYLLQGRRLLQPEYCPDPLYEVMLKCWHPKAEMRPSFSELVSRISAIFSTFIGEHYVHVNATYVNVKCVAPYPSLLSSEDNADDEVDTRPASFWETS
High affinity nerve growth factor receptor, sequence (P04629 whole entry): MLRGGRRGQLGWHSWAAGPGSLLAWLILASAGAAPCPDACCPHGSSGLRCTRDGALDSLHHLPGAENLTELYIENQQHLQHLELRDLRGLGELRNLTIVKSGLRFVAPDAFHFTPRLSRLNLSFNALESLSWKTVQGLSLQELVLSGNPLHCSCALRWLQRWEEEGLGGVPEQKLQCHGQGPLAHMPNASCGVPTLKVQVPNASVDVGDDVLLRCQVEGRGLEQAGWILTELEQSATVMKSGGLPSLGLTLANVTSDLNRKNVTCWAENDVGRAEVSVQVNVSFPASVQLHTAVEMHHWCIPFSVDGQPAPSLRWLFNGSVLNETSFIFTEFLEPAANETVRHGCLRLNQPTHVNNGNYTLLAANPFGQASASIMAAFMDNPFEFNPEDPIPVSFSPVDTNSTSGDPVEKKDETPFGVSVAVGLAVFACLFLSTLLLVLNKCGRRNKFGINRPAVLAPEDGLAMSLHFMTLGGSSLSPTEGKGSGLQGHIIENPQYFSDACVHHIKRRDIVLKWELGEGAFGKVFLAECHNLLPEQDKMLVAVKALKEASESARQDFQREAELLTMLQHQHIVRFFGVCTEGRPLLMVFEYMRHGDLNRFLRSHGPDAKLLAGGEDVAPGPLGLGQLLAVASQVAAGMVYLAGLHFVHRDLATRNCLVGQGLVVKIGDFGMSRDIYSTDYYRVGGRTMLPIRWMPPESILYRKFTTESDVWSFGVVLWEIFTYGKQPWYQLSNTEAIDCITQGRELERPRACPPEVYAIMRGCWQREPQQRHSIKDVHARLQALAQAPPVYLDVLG
MAP kinase-activated protein kinase 2, sequence (P49137 whole entry): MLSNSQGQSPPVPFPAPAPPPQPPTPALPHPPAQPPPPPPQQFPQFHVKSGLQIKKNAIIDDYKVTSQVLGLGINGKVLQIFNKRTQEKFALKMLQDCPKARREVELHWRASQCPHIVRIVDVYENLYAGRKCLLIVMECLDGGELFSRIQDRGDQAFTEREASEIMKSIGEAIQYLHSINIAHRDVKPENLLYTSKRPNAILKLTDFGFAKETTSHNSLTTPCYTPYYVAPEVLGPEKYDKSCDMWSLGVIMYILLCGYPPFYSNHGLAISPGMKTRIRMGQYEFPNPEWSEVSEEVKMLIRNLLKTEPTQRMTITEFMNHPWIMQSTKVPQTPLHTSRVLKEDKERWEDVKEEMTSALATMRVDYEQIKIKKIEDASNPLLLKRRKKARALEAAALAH
Insulin receptor, sequence (P06213 28-758 limits assumed): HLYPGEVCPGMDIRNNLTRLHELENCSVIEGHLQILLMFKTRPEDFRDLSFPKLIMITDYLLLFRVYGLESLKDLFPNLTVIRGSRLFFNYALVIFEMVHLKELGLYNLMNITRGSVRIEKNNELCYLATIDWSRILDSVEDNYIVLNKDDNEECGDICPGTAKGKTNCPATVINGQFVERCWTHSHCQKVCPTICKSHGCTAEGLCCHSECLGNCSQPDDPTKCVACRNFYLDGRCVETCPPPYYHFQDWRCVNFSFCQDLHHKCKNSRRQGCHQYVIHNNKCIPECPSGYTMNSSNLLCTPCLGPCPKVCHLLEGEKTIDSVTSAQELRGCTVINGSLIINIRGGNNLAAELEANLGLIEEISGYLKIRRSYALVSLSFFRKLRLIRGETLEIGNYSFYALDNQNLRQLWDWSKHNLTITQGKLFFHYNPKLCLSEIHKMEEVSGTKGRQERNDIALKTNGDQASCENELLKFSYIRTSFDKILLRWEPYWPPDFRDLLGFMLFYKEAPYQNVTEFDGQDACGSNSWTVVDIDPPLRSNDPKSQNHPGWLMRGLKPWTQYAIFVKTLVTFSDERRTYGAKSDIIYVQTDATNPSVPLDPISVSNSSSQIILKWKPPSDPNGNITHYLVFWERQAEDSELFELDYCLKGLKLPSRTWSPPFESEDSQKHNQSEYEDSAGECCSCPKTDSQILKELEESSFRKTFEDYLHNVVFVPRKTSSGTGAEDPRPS
Insulin receptor, sequence (P06213 763-1382 limits assumed): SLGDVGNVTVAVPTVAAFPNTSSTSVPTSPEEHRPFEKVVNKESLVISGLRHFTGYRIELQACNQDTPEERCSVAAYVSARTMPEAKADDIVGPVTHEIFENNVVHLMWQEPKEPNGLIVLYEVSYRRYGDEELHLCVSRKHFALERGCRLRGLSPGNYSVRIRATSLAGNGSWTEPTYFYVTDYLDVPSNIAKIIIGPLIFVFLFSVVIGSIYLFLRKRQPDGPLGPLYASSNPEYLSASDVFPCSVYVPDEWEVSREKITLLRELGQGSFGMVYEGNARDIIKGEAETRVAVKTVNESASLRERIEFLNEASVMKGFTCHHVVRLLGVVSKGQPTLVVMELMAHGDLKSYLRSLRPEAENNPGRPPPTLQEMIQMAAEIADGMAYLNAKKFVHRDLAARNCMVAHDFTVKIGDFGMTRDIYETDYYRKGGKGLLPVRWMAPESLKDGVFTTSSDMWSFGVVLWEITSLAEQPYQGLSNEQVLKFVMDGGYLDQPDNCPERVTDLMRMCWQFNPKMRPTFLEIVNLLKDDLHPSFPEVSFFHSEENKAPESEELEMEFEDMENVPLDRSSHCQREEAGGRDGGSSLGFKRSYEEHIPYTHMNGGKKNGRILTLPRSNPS
Tyrosine-protein kinase Lck, sequence (P06239 whole entry): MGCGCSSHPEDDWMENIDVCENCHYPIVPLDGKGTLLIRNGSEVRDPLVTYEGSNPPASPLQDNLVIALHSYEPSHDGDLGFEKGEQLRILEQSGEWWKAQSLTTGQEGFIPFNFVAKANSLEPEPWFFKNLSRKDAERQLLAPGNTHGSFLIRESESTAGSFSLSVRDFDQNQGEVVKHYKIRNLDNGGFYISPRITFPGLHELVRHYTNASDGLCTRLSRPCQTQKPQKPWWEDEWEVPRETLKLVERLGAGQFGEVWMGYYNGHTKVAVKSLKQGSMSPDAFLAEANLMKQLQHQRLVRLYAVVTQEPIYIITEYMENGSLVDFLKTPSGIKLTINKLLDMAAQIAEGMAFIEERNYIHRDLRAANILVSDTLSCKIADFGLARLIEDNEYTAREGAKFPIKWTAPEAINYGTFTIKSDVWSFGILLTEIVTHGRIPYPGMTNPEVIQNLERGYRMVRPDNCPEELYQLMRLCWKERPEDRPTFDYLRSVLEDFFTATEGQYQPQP

Row | SMILES | IC50 [1] | further results
1 | O=C(Nc1ccc(F)cn1)c1cccnc1Nc1ccc(Oc2ccnc3[nH]ccc23)c(F)c1 | 270 nM | 
2 | O=C(Nc1ccc(F)cc1F)c1cnccc1Nc1ccc(Oc2ccnc3[nH]ccc23)c(F)c1 | > 10000 nM | 
3 | O=C(Nc1ccc(F)cc1F)c1nccnc1Nc1ccc(Oc2ccnc3[nH]ccc23)c(F)c1 | 7150 nM | 
4 | O=C(Nc1ccccc1Cl)c1cccnc1Nc1ccc(Oc2ccnc3[nH]ccc23)c(F)c1 | 1200 nM | 
5 | O=C(Nc1ccccc1)c1cccnc1Nc1ccc(Oc2ccnc3[nH]ccc23)c(F)c1 | 460 nM | 
6 | Nc1cc(Oc2ccc(Nc3ncccc3C(=O)Nc3ccc(F)cc3F)cc2F)ccn1 | 900 nM | 
7 | O=C(Nc1ccccc1CCO)c1cccnc1Nc1ccc(Oc2ccnc3[nH]ccc23)c(F)c1 | 400 nM | 
8 | O=C(Nc1ccc(F)cc1F)c1cccnc1Nc1ccc(Oc2ccnc3[nH]ccc23)c(F)c1 | 210 nM | IC50 [2]: > 50000 nM; IC50 [3]: > 50000 nM; IC50 [4]: > 50000 nM; IC50 [5]: 350 nM; IC50 [6]: 120 nM; IC50 [7]: 7 nM; IC50 [8]: > 50000 nM; Cmax [9]: 9.3 µM; Activity (GTL 16 [10]): Dose-dependent effect; IC50 (Insulin receptor): > 50000 nM; AUC(0-t) at 8 h [11]: 42 µM·h; Activity (GTL 16 [12]): Active
9 | Nc1cc(Oc2ccc(Nc3nccnc3C(=O)Nc3ccc(F)cc3F)cc2F)ccn1 | 2730 nM | 
10 | Nc1cc(Oc2ccc(Nc3ncc(Br)cc3C(=O)Nc3ccc(F)cc3F)cc2F)ccn1 | 590 nM | 
11 | CSc1ncc(C(=O)Nc2ccc(F)cc2F)c(Nc2ccc(Oc3ccnc(N)c3)c(F)c2)n1 | 440 nM | 
12 | CN(C)c1ncc(C(=O)Nc2ccc(F)cc2F)c(Nc2ccc(Oc3ccnc(N)c3)c(F)c2)n1 | > 10000 nM | 
13 | Cc1ccc(C(=O)Nc2ccc(F)cc2F)c(Nc2ccc(Oc3ccnc4[nH]ccc34)c(F)c2)n1 | 2400 nM | 
14 | CN(C(=O)c1cccnc1Nc1ccc(Oc2ccnc3[nH]ccc23)c(F)c1)c1ccc(F)cc1 | 5580 nM | 
15 | Nc1cc(Oc2ccc(Nc3ncncc3C(=O)Nc3ccc(F)cc3F)cc2F)ccn1 | 1930 nM | 
16 | Cc1ccccc1NC(=O)c1cccnc1Nc1ccc(Oc2ccnc3[nH]ccc23)c(F)c1 | 420 nM | 
17 | Nc1cc(Oc2ccc(Nc3ncccc3C(=O)Nc3ccc(Cl)cc3)cc2F)ccn1 | 1160 nM | 
18 | O=C(Nc1ccc(F)cc1F)c1cc(Br)cnc1Nc1ccc(Oc2ccnc3[nH]ccc23)c(F)c1 | 640 nM | 
